Source: DBAASP
In brackets after ≈: the same amount, converted by molar mass.

Assays:
Assay in all cases: ≥ marks a high value that may be exact or a test limit, other limits are often not marked, values filed in µg/mL are converted to µM
[1] = system: Pectobacterium carotovorum subsp. carotovorum DSM 30168
[2] = system: Xanthomonas vesicatoria DSM 50861
[3] = system: Pseudomonas syringae pv. tomato DC3000
[4] = system: Clavibacter michiganensis subsp. michiganensis DSM 46294
[5] = system: Pseudomonas syringae pv. syringae DSM 10604
[6] = system: Pseudomonas corrugata DSM 7228
[7] = system: Pseudomonas aeruginosa ATCC 27853
[8] = system: Staphylococcus aureus ATCC 6538
Escherichia coli K-12 = system: Escherichia coli K-12
[9] = system: Shigella dysenteriae ATCC 9752
[10] = system: Salmonella enterica subsp. enterica serovar Typhimurium ATCC 14028
[11] = system: Bacillus subtilis ATCC 6633
[12] = system: Staphylococcus aureus ATCC 6538P
[13] = system: Klebsiella pneumoniae ATCC 10031
[14] = system: Staphylococcus epidermidis ATCC 12228
[15] = system: Escherichia coli ATCC 25922
[16] = system: Staphylococcus aureus ATCC 25923
[17] = system: Bacillus subtilis ATCC 23857

Row | MIC [1] [µM] | MIC [2] [µM] | MIC [3] [µM] | MIC [4] [µM] | MIC [5] [µM] | MIC [6] [µM] | MIC [7] [µM] | MIC [15] [µM] | Compound | also measured
1 | 4.08 (≈ 10 µg/mL) | 0.102 (≈ 0.25 µg/mL) | 1.02 (≈ 2.5 µg/mL) | 0.204 (≈ 0.5 µg/mL) | 0.204 (≈ 0.5 µg/mL) | 0.102 (≈ 0.25 µg/mL) |  |  | CC(C)C[C@H](NC(=O)[C@H](C)NC(=O)[C@H](Cc1ccccc1)NC(=O)[C@H](CCCN=C(N)N)NC(=O)[C@H](Cc1ccccc1)NC(=O)[C@H](C)NC(=O)[C@H](CCCN=C(N)N)NC(=O)[C@H](Cc1ccccc1)NC(=O)[C@H](C)NC(=O)[C@H](CC(C)C)NC(=O)[C@H](CCCCN)NC(=O)[C@H](CCCN=C(N)N)NC(=O)[C@H](CCCN=C(N)N)NC(=O)[C@@H](N)CCCCN)C(=O)N[C@@H](CCCCN)C(=O)N[C@@H](C)C(=O)N[C@H](C(=O)N[C@@H](CC(C)C)C(=O)N[C@@H](CCCCN)C(=O)N[C@@H](CCCCN)C(N)=O)C(C)C [KRRKLAFRAFRFALKAVLKK] | 
2 |  |  |  |  |  |  | 8 (≈ 11.1 µg/mL) | 64 (≈ 88.5 µg/mL) | CC(C)C[C@H](NC(=O)[C@H](CC(C)C)NC(=O)[C@H](CCCCN)NC(=O)[C@H](CCCCN)NC(=O)[C@H](Cc1c[nH]c2ccccc12)NC(=O)[C@H](CCCN=C(N)N)NC(=O)[C@H](CCCCN)NC(=O)[C@H](CC(C)C)NC(=O)[C@H](CC(C)C)NC(=O)[C@@H](N)Cc1c[nH]c2ccccc12)C(N)=O [WLLKRWKKLL] | MIC [16]: 32 µM (≈ 44.3 µg/mL); MIC [17]: 16 µM (≈ 22.1 µg/mL)

The next lines start with the molecule.

Row | Compound | MIC [1] [µM] | MIC [2] [µM] | MIC [3] [µM] | MIC [4] [µM] | MIC [5] [µM] | MIC [6] [µM] | MIC [7] [µM] | MIC [15] [µM] | also measured
3 | CC[C@H](C)[C@H](NC(=O)[C@H](C)NC(=O)[C@H](CCCCN)NC(=O)[C@H](C)NC(=O)[C@@H](NC(=O)[C@H](CC(C)C)NC(=O)[C@H](CCCCN)NC(=O)[C@H](CC(C)C)NC(=O)[C@@H](NC(=O)[C@H](CCCCN)NC(=O)[C@@H](NC(=O)[C@H](C)NC(=O)[C@H](CCCCN)NC(=O)[C@H](CCCN=C(N)N)NC(=O)[C@H](CCCN=C(N)N)NC(=O)[C@@H](N)CCCCN)[C@@H](C)CC)[C@@H](C)CC)[C@@H](C)CC)C(=O)N[C@@H](CCCN=C(N)N)C(=O)N[C@@H](CCCCN)C(=O)N[C@@H](CCCCN)C(=O)N[C@@H](CCCN=C(N)N)C(N)=O [KRRKAIKILKLIAKAIRKKR] | 4.11 (≈ 10 µg/mL) | 0.0411 (≈ 0.0999 µg/mL) | 4.11 (≈ 10 µg/mL) | 0.103 (≈ 0.25 µg/mL) | 4.11 (≈ 10 µg/mL) | 0.103 (≈ 0.25 µg/mL) |  |  | 
4 | CC[C@H](C)[C@H](NC(=O)[C@H](CC(N)=O)NC(=O)[C@H](CCCN=C(N)N)NC(=O)[C@H](C)NC(=O)[C@H](CCSC)NC(=O)[C@H](CCCCN)NC(=O)[C@H](CCC(=O)O)NC(=O)[C@@H](NC(=O)[C@H](CCCCN)NC(=O)[C@H](CCCCN)NC(=O)[C@H](Cc1ccccc1)NC(=O)[C@@H](NC(=O)[C@H](CCCCN)NC(=O)[C@H](Cc1c[nH]c2ccccc12)NC(=O)[C@@H](N)CCCCN)C(C)C)[C@@H](C)CC)C(=O)N[C@@H](CCCN=C(N)N)C(=O)N[C@@H](CC(N)=O)C(=O)N[C@@H](CCCCN)C(=O)N[C@H](C(=O)N[C@H](C(=O)N[C@@H](CCCCN)C(N)=O)C(C)C)[C@@H](C)CC [KWKVFKKIEKMARNIRNKIVK] |  |  |  |  |  |  | > 3 |  | MIC [8]: > 12 µM; MIC (Escherichia coli K-12): 6 µM (≈ 15.9 µg/mL)
5 | CC(C)C[C@H](NC(=O)[C@H](Cc1c[nH]c2ccccc12)NC(=O)[C@H](CCCCN)NC(=O)[C@H](CCCCN)NC(=O)[C@@H](N)CC(C)C)C(=O)N[C@@H](CCCCN)C(N)=O [LKKWLK] |  |  |  |  |  |  | > 245 | > 245 | MIC [9]: ≥ 245 µM; MIC [10]: > 245 µM; MIC [11]: ≥ 245 µM; MIC [12]: ≥ 245 µM; MIC [13]: ≥ 245 µM; MIC [14]: > 245 µM
